Data as given in US8828994B2, “Di- and tri-substituted oxathiazine derivatives, method for the production thereof, use thereof as medicine and drug containing said derivatives and use thereof” (SANOFI, priority 2011, dated 2014).

Target: human 11β-HSD1 microsome fraction (Homo sapiens, UniProt P28845)
Experiment: Enzymatic 11beta-HSD1 test (SPA-based detection)
Assay type: biochemical
Conditions: [1,2-3H]-cortisone, NADPH, 37° C., 1 hour, read-out: IC50 (nM), biological activity
Protocol: First of all, 20 μl of the human 11β-HSD1 microsome fraction (0.2 μg of protein), prepared in 50 mM HEPES, 0.1% BSA (w/v), were applied to a plate with 384 wells. The test compounds (0.09 μl) were applied to the assay plate in 100% DMSO. The reaction was started by addition of 20 μl of [1,2-^3H]-cortisone (0.1 μCi/[…]) in assay buffer comprising 25 mM HEPES, 100 mM KCl, 5 mM NaCl, 2 mM MgCl2 and 0.25 mM NADPH. The plate was agitated at 37° C. for 1 hour. At the same time, a stop solution comprising 20 mg/ml SPA-PVT beads, 1.6 mg/ml monoclonal cortisol antibody and 0.01 mM SSR110887 (inhibitor from the Biovitrium patent) in 50 mM HEPES, 1 M NaCl and 1 M KCl was stirred at room temperature. To stop the reaction, 25 μl of the stop solution were added to each well. The plate was agitated gently at room temperature for 1 further hour and then centrifuged at 500 gav for 1 min, in order that the SPA beads could settle out. […] The comparative compound was glycyrrhetinic acid.
Protein and radioactive substrate were dispensed with a Biomek FX unit (Beckman Coulter) for handling liquids. The test compounds were added with a Cybi-Well equipped with a 90 n1 pin tool (CyBio).
Lit.: Solly S, Mundt S S, Zokian H J, Juy-Fang Ding G, Hermanowski-Vosatka A, Strulovici B and Zheng W. High-throughput screening of 11β-Hydroxysteroid dehydrogenase type 1 in scintillation proximity format.

Sequence of human 11β-HSD1 microsome fraction (P28845 whole entry): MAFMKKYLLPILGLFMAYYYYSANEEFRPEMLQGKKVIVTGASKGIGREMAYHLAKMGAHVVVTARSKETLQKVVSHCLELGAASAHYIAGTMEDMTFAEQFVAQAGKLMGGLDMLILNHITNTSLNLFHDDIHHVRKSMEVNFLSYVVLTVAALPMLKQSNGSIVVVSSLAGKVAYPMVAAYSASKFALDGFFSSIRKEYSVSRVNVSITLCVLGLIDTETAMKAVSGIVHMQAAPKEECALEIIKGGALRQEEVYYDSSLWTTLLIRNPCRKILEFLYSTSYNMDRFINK

Row | IC50 | SMILES
1 | 355 nM | O=S1(=O)N=C(NC2CCCCC2)OC(c2ccccc2)C12CC2 (centres unmarked) [Example 1, Cyclohexyl-(4,4-dioxo-8-phenyl-7-oxa-4lambda6-thia-5-aza-spiro[2.5]oct-5-en-6-yl)-amine]
2 | 629 nM | CC(C)C1OC(NC2CCCCC2)=NS(=O)(=O)C12CC2 (centres unmarked) [Example 3, Cyclohexyl-(8-isopropyl-4,4-dioxo-7-oxa-4lambda6-thia-5-aza-spiro[2.5]oct-5-en-6-yl)-amine]
3 | 518 nM | CCCC1OC(NC2CCCCC2)=NS(=O)(=O)C12CC2 (centres unmarked) [Example 4, Cyclohexyl-(4,4-dioxo-8-propyl-7-oxa-4lambda6-thia-5-aza-spiro[2.5]oct-5-en-6-yl)-amine]
4 | 438 nM | CC(C)(C)C1OC(NC2CCCCC2)=NS(=O)(=O)C12CC2 (centres unmarked) [Example 5, (8-tert-Butyl-4,4-dioxo-7-oxa-4lambda6-thia-5-aza-spiro[2.5]oct-5-en-6-yl)-cyclohexyl-amine]
5 | 598 nM | CC1OC(NC2CCCCC2)=NS(=O)(=O)C12CC2 (centres unmarked) [Example 6, Cyclohexyl-(8-methyl-4,4-dioxo-7-oxa-4lambda6-thia-5-aza-spiro[2.5]oct-5-en-6-yl)-amine]
